The text below walks through data of US6500811B2, “Sulfonylaminophosphinic and sulfonylaminophosphonic acid derivatives, methods for their preparation and use” (Aventis Pharma Deutschland GmbH, priority 1998, dated 2002).

Common to all, as to format: biochemical
Assay [1] has as its target T1, neutrophil collagenase (MMP-8) (Homo sapiens, UniProt P22894).
T1 construct: catalytic domain of human stromelysin and of neutrophil collagenase; made in house
Description: Enzymatic activity of the catalytic domain of neutrophil collagenase, fluorogenic substrate. Conditions: pH 6.5, 15 min preincubation. On the procedure:
(§1) Preparation and determination of the enzymatic activity of the catalytic domain of human stromelysin and of neutrophil collagenase.
(§2) The two enzymes—stromelysin (“MMP-3”) and neutrophil collagenase (“MMP-8”)—were prepared according to Ye et al., 31 BIOCHEMISTRY 11231 (1992). For the measurement of the enzyme activity or of the enzyme inhibitor action, 70 μl of buffer solution and 10 μl of enzyme solution are incubated for 15 minutes with 10 μl of a 10% strength (v/v) aqueous dimethyl sulfoxide solution which optionally contains the enzyme inhibitor. After addition of 10 μl of a 10% strength (v/v) aqueous dimethyl sulfoxide solution which contains 1 mmol/l of the substrate, the enzyme reaction is monitored by fluorescence spectroscopy (328 nm (ex)/393 nm(em)).
(§3) The enzyme activity is shown as extinction increase/minute. The IC50 values listed in Table 2 are determined as those inhibitor concentrations which in each case lead to a 50% inhibition of the enzyme.
(§4) The buffer solution contains 0.05% Brij (Sigma, Deisenhofen, Germany) and 0.1 mol/l of tris/HCl, 0.1 mol/l of NaCl, 0.01 mol/l of CaCl2 and 0.1 mol/l of piperazine-N,N′-bis[2-ethanesulfonic acid] (pH=6.5).
(§5) The enzyme solution contains 5 μg/ml of one of the enzyme domains prepared according to Ye et al. The substrate solution contains 1 mmol/l of the fluorogenic substrate (7-methoxycoumarin4-yl)acetyl-Pro-Leu-Gly-Leu-3-(2′,4′-dinitrophenyl)-L-2,3-diaminopropionyl-Ala-Arg-NH2 (Bachem, Heidelberg, Germany).

A further assay addresses T2, stromelysin (MMP-3) (Homo sapiens, UniProt P08254).
T2 construct: enzymatic activity of the catalytic domain of human stromelysin; made in house
Description: Enzymatic activity of the catalytic domain of human stromelysin, fluorogenic substrate. Conditions: pH 6.5, 15 min preincubation. How it is done: as §1, §2, §3, §4, §5

A further assay has as its system aggrecanase. The assay can be described thus: Aggrecanase activity from rat chondrosarcoma cell supernatant, rAgg1mut cleavage detected by BC-3 Western blot. Particulars: RCS cell culture supernatant, 1 h preincubation, 4 h incubation with rAgg1mut. On the procedure:
Preparation and determination of the enzymatic activity of the catalytic domain of aggrecanase using rat chondrosarcoma cells:
For the generation of the as yet not identified “aggrecanase” activity, rat chondrosarcoma cells (RCS) were used. Lark et al.; 270 J. BIOL. CHEM. 2550 (1995). These cells were inoculated into 96-well cell culture plates precoated with poly-L-lysine (80,000 cells/well). After stimulation of the RCS cells with retinoic acid (0.67 μM) and an incubation time of 47 hours (h) at 37° C. and 5% CO2, these cells generate the “aggrecanase” activity. The test substance compound 1 was then preincubated for 1 h in the “aggrecanase”-containing cell culture supernatant before 5 μg of eucaryotic rAgg1mut (Buttner et al., 333 BIOCHEM. J. 159 (1998); Hughes et al., 272 J. BIOL. CHEM. 20269 (1997)) were added for the detection of the “aggrecanase” cleavage activity in the cell culture supernatant of the RCS cells. After an incubation time of 4 h, the cell culture supernatant was removed and the cleavage products of the rAgg1mut fusion proteins generated by the “aggrecanase” activity were detected by means of SDS-polyacrylamide gel electrophoresis and Western Blot analyses with the monoclonal antibody BC-3. Hughes et al., 305 BIOCHEM. J. 799 (1995). […] The less cleaved rAgg1mut was detected, the more efficacious was the tested compound of the formula I.
The IC50 values listed in Table 3 are determined as those inhibitor concentrations which in each case led to a 50% inhibition of the enzyme aggrecanase.
A general note: In western blotting, separated proteins are transferred to a membrane and probed.

T2 sequence (P08254 100-272 limits assumed): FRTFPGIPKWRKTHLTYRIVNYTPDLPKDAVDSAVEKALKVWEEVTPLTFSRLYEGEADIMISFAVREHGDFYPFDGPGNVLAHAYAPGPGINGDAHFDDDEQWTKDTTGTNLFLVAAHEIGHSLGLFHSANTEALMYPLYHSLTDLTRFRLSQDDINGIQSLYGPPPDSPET
T1 sequence (P22894 100-262 limits assumed): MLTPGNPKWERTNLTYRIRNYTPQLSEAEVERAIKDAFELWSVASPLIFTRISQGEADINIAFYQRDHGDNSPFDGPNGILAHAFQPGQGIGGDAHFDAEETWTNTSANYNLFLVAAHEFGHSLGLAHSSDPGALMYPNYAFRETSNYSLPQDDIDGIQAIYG

By IC50 is commonly meant the concentration needed to halve the response being measured. Take `CCOP(=O)(O)C(NS(=O)(=O)c1ccc(-c2ccc(Cl)cc2)cc1)c1ccccc1` (racemic) [Example 2, Monoethyl (R,S)-[1-(4′-chlorobiphenyl-4-sulfonylamino)-1-phenylmethyl]phosphonate]: the figures for the IC50 (in assay [1]; against stromelysin (MMP-3); in the assay with aggrecanase) were 200 nM, 5000 nM and 79 µM, respectively.

Turning to `O=P(O)(O)C(NS(=O)(=O)c1ccc(-c2ccc(Cl)cc2)cc1)c1ccccc1` (racemic) [Example 3, (R,S)-[(4′-Chlorobiphenyl-4-sulfonylamino)phenylmethyl]-phosphonic acid], the values for the IC50 (in assay [1]; on stromelysin (MMP-3); with aggrecanase) were 7 nM, 100 nM and 22 µM, respectively.

Turning to `O=P(O)(O)C(Cc1c[nH]c2ccccc12)NS(=O)(=O)c1ccc(-c2ccc(Cl)cc2)cc1` (racemic) [Example 4, (R,S)-[1-(4′-Chlorobiphenyl-4-sulfonylamino)-2-(1H-indol-3-yl)-ethyl]phosphonic acid], the concentration for half-maximal inhibition (IC50) amounted to 60 nM in assay [1], 500 nM at stromelysin (MMP-3) and 12 µM with aggrecanase.

`CC(NS(=O)(=O)c1ccc(-c2ccc(Cl)cc2)cc1)P(=O)(O)O` (racemic) [Example 5, (R,S)-[1-(4′-Chlorobiphenyl-4-sulfonylamino)ethyl]phosphonic acid]: the IC50 in assay [1] came to 5 nM; at stromelysin (MMP-3) it was 100 nM; with aggrecanase, 25 µM.

Turning to `CC(C)CC(NS(=O)(=O)c1ccc(-c2ccc(Cl)cc2)cc1)P(=O)(O)O` (racemic) [Example 6, (R,S)-[1-(4′-chlorobiphenyl-4-sulfonylamino)-3-methylbutyl]-phosphonic acid], the IC50 was determined as 3 nM in assay [1], 30 nM on stromelysin (MMP-3) and 2.4 µM in the assay with aggrecanase.

As to `CC(C)[C@H](NS(=O)(=O)c1ccc(-c2ccc(Cl)cc2)cc1)P(=O)(O)O` [Example 1, (R)-[1-(4′-Chlorobiphenyl-4-sulfonylamino)-2-methylpropyl]-phosphonic acid], the IC50 in assay [1] is 1 nM; on stromelysin (MMP-3) it was 6 nM; in the assay on aggrecanase it was 0.6 µM.

The compound `O=P(O)(O)C(O)CC(NS(=O)(=O)c1ccc(-c2ccc(Cl)cc2)cc1)c1ccccc1` (stereo not drawn) [Example 8] showed an IC50 in the assay on aggrecanase of 15 µM.

On to `COP(=O)(OC)C(O)CC(NS(=O)(=O)c1ccc(-c2ccc(Cl)cc2)cc1)c1ccc(C(F)(F)F)cc1` (stereo not drawn) [Example 10], for which the IC50 in the assay on aggrecanase amounted to 2.1 µM.

For `O=C(O)C(CP(=O)(O)O)NS(=O)(=O)c1ccc(-c2ccc(Cl)cc2)cc1` (stereo not drawn) [Example 12], the IC50 in the assay on aggrecanase came out at 50 µM.

In the assay on aggrecanase, `O=P(O)(O)CCNS(=O)(=O)c1ccc(-c2ccc(Cl)cc2)cc1` [Example 13] had an IC50 of 50 µM.

`O=C(O)C(CCP(=O)(O)O)NS(=O)(=O)c1ccc(-c2ccc(Cl)cc2)cc1` (stereo not drawn) [Example 14] had an IC50 in the assay on aggrecanase of 55 µM.

The compound `CCOP(=O)(O)C(O)CC(NS(=O)(=O)c1ccc(-c2ccc(Cl)cc2)cc1)c1ccccc1` (stereo not drawn) [Example 15] showed an IC50 in the assay on aggrecanase of 67 µM.

For the compound `O=P(O)(O)CCNS(=O)(=O)c1ccc(-c2ccc(N3CCCC3)cc2)cc1` [Example 16], inhibition in the assay with aggrecanase was half-maximal at 28 µM (IC50).

In the assay with aggrecanase, `O=C(O)C(CP(=O)(O)O)NS(=O)(=O)c1ccc(-c2ccc(N3CCCC3)cc2)cc1` (stereo not drawn) [Example 17] returned an IC50 of 69 µM.

Turning to `CC(C)[C@@H](NS(=O)(=O)c1ccc(-c2ccc(Cl)cc2)cc1)P(=O)(O)O` [Example 18], the IC50 amounted to 1000 nM in assay [1], 10000 nM against stromelysin (MMP-3) and 60 µM with aggrecanase.

For `CC(C)[C@H](NS(=O)(=O)c1ccc(-c2ccc(N3CCCC3)cc2)cc1)P(=O)(O)O` [Example 19], the 50% inhibitory concentration (IC50) in assay [1] turned out to be 2 nM; against stromelysin (MMP-3), 5 nM.

As for `CC(NS(=O)(=O)CCc1ccc(-c2ccc(Cl)cc2)cc1)P(=O)(O)O` (stereo not drawn) [Example 20], the IC50 in assay [1] was determined as 2 nM; against stromelysin (MMP-3) it was 8 nM; in the assay with aggrecanase, 4.7 µM.

Take `O=C(O)C(CCC(NS(=O)(=O)c1ccc(-c2ccc(Cl)cc2)cc1)P(=O)(O)O)NS(=O)(=O)c1ccc(-c2ccc(Cl)cc2)cc1` (stereo not drawn) [Example 21]: the midpoint of inhibition with aggrecanase, the IC50, lay at 0.52 µM.

For the compound `CC(NS(=O)(=O)c1ccc(-c2ccc(N3CCCC3)cc2)cc1)P(=O)(O)O` (stereo not drawn) [Example 22], the IC50 is 20 nM in assay [1], 20 nM against stromelysin (MMP-3) and 8.3 µM with aggrecanase.

As to `CCCCOc1ccc(S(=O)(=O)N[C@@H](C(C)C)P(=O)(O)O)cc1` [Example 24], the results for the IC50 (in assay [1]; on stromelysin (MMP-3)) were 30 nM and 400 nM, respectively.

With `CC(C)[C@H](NS(=O)(=O)CCc1ccc(-c2ccc(Cl)cc2)cc1)P(=O)(O)O` [Example 25], the results for the IC50 (in assay [1]; against stromelysin (MMP-3)) were 2 nM and 3 nM, respectively.
